This note sets out measurements from patent US20120083522A1, “MODULATION OF INFLAMMATORY RESPONSES BY FACTOR XI” (Isis Pharmaceuitcals, inc., priority 2009, published 2012).

For series [1], the system named is human Factor XI mRNA. The series is described as follows: Dose-dependent inhibition in HepG2 cells, electroporation (Example 5). In kind it is cell-based. The settings on record: approx. 16 h, relative to untreated control cells. The protocol:
The gapmers were also transfected via electroporation and their dose dependent inhibition of human Factor XI mRNA was measured. Cells were plated at a density of 20,000 cells per well and transfected via electroporation with 625 nM, 1250 nM, 2500 nM, 5,000 nM, 10,000 nM, and 20,000 nM concentrations of antisense oligonucleotide, as specified in Table 12. After a treatment period of approximately 16 hours, RNA was isolated from the cells and human Factor XI mRNA levels were measured by quantitative real-time PCR. Human Factor XI primer probe set RTS 2966 was used to measure mRNA levels. Factor XI mRNA levels were adjusted according to total RNA content, as measured by RIBOGREEN®. Results are presented as percent inhibition of human Factor XI, relative to untreated control cells.

Series [2] concerns Factor XI mRNA. The series is described as follows: Cynomolgus monkeys, escalating doses: liver Factor XI RNA analysis (Example 29). In kind it is in vivo. The settings on record: escalating doses 5, 10, 25 mg/kg s.c. over 12 weeks, day 85. The protocol: Groups, each consisting of two male and three female monkeys, were injected subcutaneously with ISIS 416838, ISIS 416850, ISIS 416858, ISIS 416864, or ISIS 417002 in escalating doses. Antisense oligonucleotide was administered to the monkeys at 5 mg/kg three times per a week for week 1; 5 mg/kg twice per week for weeks 2 and 3; 10 mg/kg three times per week for week 4; 10 mg/kg twice per week for weeks 5 and 6; 25 mg/kg three times per week for week 7; and 25 mg/kg twice per week for weeks 8, 9, 10, 11, and 12. One control group, consisting of two male and three female monkeys, was injected subcutaneously with PBS according to the same dosing regimen. An additional experimental group, consisting of two male and three female monkeys, was injected subcutaneously with ISIS 416850 in a chronic, lower dose regimen. Antisense oligonucleotide was administered to the monkeys at 5 mg/kg three times per week for week 1; 5 mg/kg twice per week for week 2 and 3; 10 mg/kg three times per week for week 4; and 10 mg/kg twice per week for weeks 5 to 12. Body weights were measured weekly. Blood samples were collected 14 days and 5 days before the start of treatment and subsequently once per week for Factor XI protein activity analysis in plasma and measurement of various hematologic factors. On day 85, the monkeys were euthanized by exsanguination while under deep anesthesia, and organs harvested for further analysis.
On day 85, RNA was extracted from liver tissue for real-time PCR analysis of Factor XI using primer probe set LTS00301 (forward primer sequence […], designated herein as SEQ ID NO 271; reverse primer sequence […], designated herein as SEQ ID NO: 272; and probe sequence TGCAGGCACAGCATCCCAGTGTTCTX, wherein X is a fluorphore, designated herein as SEQ ID NO. 273). Results are presented as percent inhibition of Factor XI, relative to PBS control.

In the next series the test system is Factor XI protein. The series is described as follows: Cynomolgus monkeys: plasma Factor XI protein ELISA (Example 30). The series is classed as in vivo. The following applies: for Inhibition of Factor XI protein relative to the PBS control: 25 mg/kg s.c., plasma ELISA. Summed up:
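Monkeys (2 male, 2 female per group) dosed s.c. with antisense oligonucleotide 25 mg/kg three times in week 1, then twice weekly to week 8; PBS control on same schedule. Plasma (1:50) assayed by sandwich ELISA with polyclonal anti-Factor XI capture and peroxidase-conjugated detection, o-phenylenediamine read at 490 nm; expressed as percent reduction versus PBS.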

Series [3] relates to Factor XI mRNA. The series is described as follows: Cynomolgus monkeys, 25 mg/kg: liver Factor XI RNA analysis (Example 30). In kind it is in vivo. The settings on record: for % inhibition of Factor XI mRNA in liver relative to the PBS control: 25 mg/kg s.c., day 55. The essentials:
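Cynomolgus monkeys (2 male, 2 female per group) received antisense oligonucleotide at 25 mg/kg subcutaneously, three times weekly in week 1, then twice weekly in weeks 2–8. Liver Factor XI mRNA was quantified by real-time PCR on day 55 and expressed as percent inhibition relative to a PBS-dosed group.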

In series [4] the test system is human Factor XI mRNA. The series is described as follows: Dose-dependent inhibition and IC50 in HepG2 cells, electroporation (Example 15). In kind it is cell-based. The essentials:
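HepG2 cells were electroporated with antisense oligonucleotide at 123.46, 370.37, 1,111.11, 3,333.33 and 10,000 nM and harvested after about 16 h. Factor XI mRNA was quantified by qRT-PCR (primer probe set RTS 2966), normalized to RIBOGREEN total RNA, and expressed as percent inhibition versus untreated cells.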

In the oligonucleotide strings, read from the 5' end, every base follows the letter of its sugar. An asterisk marks phosphorothioate; unmarked linkages are phosphodiester. Other units and linkages are bracketed, terminal groups are in braces. A string of capitals states the bases alone. e = 2'-O-(2-methoxyethyl) (MOE); [5mC] = 5-methylcytosine; d = 2'-deoxy (DNA)

As for “416825 (antisense GCCCTTCATGTCTAGGTCCA; 5-10-5 gapmer, wing sugar chemistry not given here, further chemistry not given here) [compound 416825]”, the “percent inhibition of human Factor XI mRNA” value in the series on human Factor XI mRNA [1] (625 nM) was determined as 69%; in the series on human Factor XI mRNA [1] (1250 nM), 84%; with human Factor XI mRNA [1] (2500 nM) it was 91%; in the series on human Factor XI mRNA [1] (5000 nM), 94%; in the series on human Factor XI mRNA [1] (10000 nM) it was 96%; with human Factor XI mRNA [1] (20000 nM) it was 97%.

“416838 (antisense GCAACCGGGATGATGAGTGC; 5-10-5 gapmer, wing sugar chemistry not given here, further chemistry not given here) [compound 416838]”: the “% inhibition of Factor XI mRNA in liver relative to the PBS control” value with Factor XI mRNA [2] is 37%. Further, the “percent inhibition of human Factor XI mRNA” value with human Factor XI mRNA [1] (625 nM) is listed as 66%; with human Factor XI mRNA [1] (1250 nM) it was 79%; with human Factor XI mRNA [1] (2500 nM) it was 87%; in the series on human Factor XI mRNA [1] (5000 nM), 90%; in the series on human Factor XI mRNA [1] (10000 nM), 93%; with human Factor XI mRNA [1] (20000 nM), 96%.

Take “416864 (antisense GGCAGCGGACGGCATTGGTG; 5-10-5 gapmer, wing sugar chemistry not given here, further chemistry not given here) [compound 416864]”: in the series on Factor XI mRNA [2], the “% inhibition of Factor XI mRNA in liver relative to the PBS control” value is 44%. In addition, the “percent inhibition of human Factor XI mRNA” value in the series with human Factor XI mRNA [1] (625 nM) stood at 45%; in the series on human Factor XI mRNA [1] (1250 nM) it was 74%; in the series with human Factor XI mRNA [1] (2500 nM), 84%; in the series with human Factor XI mRNA [1] (5000 nM), 87%; with human Factor XI mRNA [1] (10000 nM) it was 92%; in the series with human Factor XI mRNA [1] (20000 nM), 94%.

As for “416925 (antisense GGTGCACAGTTTCTGGCAGG; 3-14-3 chimeric gapmer, wing sugar chemistry not given here, further chemistry not given here) [compound 416925]”, the “percent inhibition of human Factor XI mRNA” value came to 64% in the series with human Factor XI mRNA [1] (625 nM); 80% with human Factor XI mRNA [1] (1250 nM); 88% with human Factor XI mRNA [1] (2500 nM); 91% with human Factor XI mRNA [1] (5000 nM); 95% in the series on human Factor XI mRNA [1] (10000 nM); 96% in the series with human Factor XI mRNA [1] (20000 nM).

For “416999 (antisense GCACAGTTTCTGGCAGGCCT; 2-13-5 gapmer, wing sugar chemistry not given here, further chemistry not given here) [compound 416999]”, the “percent inhibition of human Factor XI mRNA” value was 61% in the series with human Factor XI mRNA [1] (625 nM); 82% with human Factor XI mRNA [1] (1250 nM); 89% in the series on human Factor XI mRNA [1] (2500 nM); 94% with human Factor XI mRNA [1] (5000 nM); 94% in the series on human Factor XI mRNA [1] (10000 nM); 97% with human Factor XI mRNA [1] (20000 nM).

As to “417003 (antisense TGGTGCACAGTTTCTGGCAG; 2-13-5 gapmer, wing sugar chemistry not given here, further chemistry not given here) [compound 417003]”, the “percent inhibition of human Factor XI mRNA” value was found to be 60% with human Factor XI mRNA [1] (625 nM); 74% in the series with human Factor XI mRNA [1] (1250 nM); 86% in the series on human Factor XI mRNA [1] (2500 nM); 90% in the series with human Factor XI mRNA [1] (5000 nM); 95% in the series on human Factor XI mRNA [1] (10000 nM); 95% with human Factor XI mRNA [1] (20000 nM).

Take “445522 (antisense eG*e[5mC]*eA*e[5mC]*eA*dG*dT*dT*dT*d[5mC]*dT*dG*dG*e[5mC]*eA*eG*eG*e[5mC]) [compound 445522]”: the “Inhibition of Factor XI protein relative to the PBS control” value came out at 36% in the series with Factor XI protein (Day 10); 50% in the series with Factor XI protein (Day 17); 61% in the series on Factor XI protein (Day 24); 70% in the series on Factor XI protein (Day 31); 73% in the series with Factor XI protein (Day 38); 77% with Factor XI protein (Day 45). In addition, the “Inhibition of Factor XI protein relative to the PBS control” value in the series on Factor XI protein (Day 52) came to 80%; in the series with Factor XI protein (Day 55), 82%; in the series on Factor XI protein (Day −5), 0%; with Factor XI protein (Day −14), 2%. Also, the “% inhibition of Factor XI mRNA in liver relative to the PBS control” value in the series on Factor XI mRNA [3] worked out at 89%. The “percent inhibition of Factor XI mRNA” value in the series on human Factor XI mRNA [4] (electroporation, 123.47 nM) came to 0%; with human Factor XI mRNA [4] (electroporation, 370.37 nM), 0%; in the series with human Factor XI mRNA [4] (electroporation, 1,111.11 nM), 44%; in the series with human Factor XI mRNA [4] (electroporation, 3,333.33 nM), 63%; in the series with human Factor XI mRNA [4] (electroporation, 10,000.0 nM) it was 74%.

For “445531 (antisense eG*eG*e[5mC]*eA*eT*dT*dG*dG*dT*dG*d[5mC]*dA*d[5mC]*eA*eG*eT*eT*eT) [compound 445531]”, the “Inhibition of Factor XI protein relative to the PBS control” value is listed as 9% in the series on Factor XI protein (Day 10); 22% in the series with Factor XI protein (Day 17); 23% in the series with Factor XI protein (Day 24); 27% in the series on Factor XI protein (Day 31); 29% in the series on Factor XI protein (Day 38); 32% with Factor XI protein (Day 45). In addition, the “Inhibition of Factor XI protein relative to the PBS control” value was 32% with Factor XI protein (Day 52), 37% with Factor XI protein (Day 55), 1% with Factor XI protein (Day −5) and 0% in the series with Factor XI protein (Day −14). The “% inhibition of Factor XI mRNA in liver relative to the PBS control” value with Factor XI mRNA [3] is given as 66%. The “percent inhibition of Factor XI mRNA” value was 8% with human Factor XI mRNA [4] (electroporation, 123.47 nM); 16% in the series on human Factor XI mRNA [4] (electroporation, 370.37 nM); 52% with human Factor XI mRNA [4] (electroporation, 1,111.11 nM); 61% with human Factor XI mRNA [4] (electroporation, 3,333.33 nM); 77% in the series on human Factor XI mRNA [4] (electroporation, 10,000.0 nM).

Regarding “ISIS 416850: gapmer of Table 8 (antisense eT*eG*e[5mC]*eA*e[5mC]*dA*dG*dT*dT*dT*d[5mC]*dT*dG*dG*d[5mC]*eA*eG*eG*e[5mC]*e[5mC])”, the “Factor XI protein levels (in words)” value in the series with Factor XI protein (cynomolgus monkeys, Example 30) is recorded as “time-dependent decrease in protein levels”. Also, the “Factor XI mRNA in liver (in words)” value in the series with Factor XI mRNA [3] (cynomolgus monkeys, day 55, in comparison to the PBS control) is “significant reduction of Factor XI mRNA”.
